In US20030092004A1 (priority 2001, published 2003):
Entries after “also recorded” stand apart in the source; their conditions may differ. Like-named read-outs stand apart in the source and are kept apart here.

How the values were obtained:
[1] = biological target: NR1/NR3A receptors (Rattus norvegicus, UniProt P35439+Q9R1M7); test: Two-electrode voltage recording of glycine-evoked currents in oocytes injected with NR1 and NR3A subunits
Method: Microinjection of oocytes and electrophysiological recordings were performed as follows. Physiological and pharmacological properties of NMDA receptor subunits were characterized in the X. laevis oocyte expression system. […] X. laevis oocytes were harvested and defolliculated by digestion with collagenase (2 mg/ml) for 2 hrs. Twenty to 40 ng of cRNA were injected into each oocyte using glass pipettes with a tip size of 20-40 μm in diameter. Electrophysiological recordings were performed from whole oocytes 2-7 days after injection using a dual-electrode voltage-clamp amplifier (Model OC-725A, Warner Instrument, Hamden, Conn.). Micropipettes were filled with 3M KCl. The bath solution contained 115 mM NaCl, 2.5 mM KCl, 1.5 mM BaCl2, and 10 mM Hepes at pH 7.4. Drugs were applied to oocytes via a rapid perfusion system. Data were collected at 2.2 to 11.1 Hz at room temperature using the MacLab/4e A/D converter (AD Instruments, Mountain View, Calif.). Data analysis was performed using the programs Chart (AD Instruments, Mountain View, Calif.) and Microsoft Excel.

[2] = biological target: NR1/NR3B receptors (Rattus norvegicus, UniProt P35439+Q8VHN2); test: Two-electrode voltage-clamp recording of whole-cell currents in Xenopus oocytes injected with NR1 and NR3B cRNA; assay type: cell-based; settings: for effect on glycine-evoked NR1/NR3B currents on co-application: doses maximally effective at classical NMDARs
Method: Currents were recorded in 1.5 mM Ba^2+ Ringers' solution from oocytes injected with 2 ng of NR1 cRNA and 12 ng of NR3B cRNA.
NR3B cRNA for oocyte expression was produced as follows. The full-length NR3B cDNA was constructed in the pCMV6-XL4 vector (OriGene Technologies, Inc., Rockville, Md.), which contains a T7 promoter upstream of the cDNA insert. […] The truncated cRNA could potentially encode a dominant negative form of NR3B. Therefore, a new vector was constructed to facilitate production of exclusively full-length NR3B cRNA. Construction of this vector proceeded as follows. NR1 cDNA was excised from the pGEM-HE/NR1 vector (a gift from S. F. Heinemann) by digestion with EcoRI and the two ends of the truncated pGEM-HE vector were re-ligated. The truncated pGEM-HE vector retained the 5′ and 3′ UTRs of the X. laevis β-globin gene for high level protein expression in frog oocytes. The SfoI-KpnI fragment of truncated pGEM-HE, which contains the T7 promoter, was replaced with the PvuII-KpnI fragment of pBluescript II KS, which contains the T3 promoter, to generate pJC32. The abbreviated multiple cloning site of pJC32 was then replaced with the multiple cloning site from pcDNA3.1(+) (Invitrogen, Carlsbad, Calif.) by ligating the 102 bp PmeI fragment of pcDNA3.1(+) into the 3 kb SmaI-EcoRV fragment of pJC32 to generate pJC34. Oligos encoding restriction sites for AscI, PacI, and PmeI (ctagc[…]g (SEQ ID NO:52) and ctagc[…]g (SEQ ID NO:53)) were annealed and ligated into the NheI site of pJC34. The resulting vector, pJC39, contains three rare restriction sites downstream of the multiple cloning site to facilitate linearization prior to in vitro transcription using T3 RNA polymerase.
The full-length NR3B (B4 form) cDNA was then excised from pCMV6-XL4 by digestion with EcoRI and XbaI, and the 3.2 kb fragment was ligated into EcoRI/XbaI-digested pJC39. The resulting vector, pJC42, was linearized with PmeI, and in vitro transcription was performed using the mMessage mMachine T3 kit (Ambion, Inc., Austin, Tex.) according to the manufacturer's instructions.
Micropipettes were filled with 3M KCl.

[3] = biological target: NR1/NR2A receptors (Rattus norvegicus, UniProt P35439+Q00959); test: Two-electrode voltage-clamp recording of NMDA plus glycine-evoked currents in Xenopus oocytes expressing NR1/NR2A; assay type: cell-based; settings: for effect on NR1/NR2A currents: 100 μM NMDA plus 10 μM glycine
Method: Microinjection of oocytes and electrophysiological recordings were performed as follows. Physiological and pharmacological properties of NMDA receptor subunits were characterized in the X. laevis oocyte expression system. Full-length cDNAs encoding NMDA receptor subunits were linearized and used as templates for synthesis of cRNA by in vitro transcription using T3 or T7 RNA polymerase (Ambion, Inc., Austin, Tex.). The DNA template was removed by DNase I digestion, and the RNA was purified by phenol/chloroform extraction and ethanol precipitation. The RNA was resuspended in water at 1 μg/μl and stored in −80° C. freezer until use. X. laevis oocytes were harvested and defolliculated by digestion with collagenase (2 mg/ml) for 2 hrs. Twenty to 40 ng of cRNA were injected into each oocyte using glass pipettes with a tip size of 20-40 μm in diameter. […] Micropipettes were filled with 3M KCl. […] Drugs were applied to oocytes via a rapid perfusion system. Data were collected at 2.2 to 11.1 Hz at room temperature using the MacLab/4e A/D converter (AD Instruments, Mountain View, Calif.). Data analysis was performed using the programs Chart (AD Instruments, Mountain View, Calif.) and Microsoft Excel.

[4] = concentration of compound not given or dose-dependent
[5] = no glutamate/NMDA, 1.5 mM Ba2+ Ringers' solution

Chain of NR1/NR2A receptors (Q00959 20-1464 limits assumed, other chains not shown): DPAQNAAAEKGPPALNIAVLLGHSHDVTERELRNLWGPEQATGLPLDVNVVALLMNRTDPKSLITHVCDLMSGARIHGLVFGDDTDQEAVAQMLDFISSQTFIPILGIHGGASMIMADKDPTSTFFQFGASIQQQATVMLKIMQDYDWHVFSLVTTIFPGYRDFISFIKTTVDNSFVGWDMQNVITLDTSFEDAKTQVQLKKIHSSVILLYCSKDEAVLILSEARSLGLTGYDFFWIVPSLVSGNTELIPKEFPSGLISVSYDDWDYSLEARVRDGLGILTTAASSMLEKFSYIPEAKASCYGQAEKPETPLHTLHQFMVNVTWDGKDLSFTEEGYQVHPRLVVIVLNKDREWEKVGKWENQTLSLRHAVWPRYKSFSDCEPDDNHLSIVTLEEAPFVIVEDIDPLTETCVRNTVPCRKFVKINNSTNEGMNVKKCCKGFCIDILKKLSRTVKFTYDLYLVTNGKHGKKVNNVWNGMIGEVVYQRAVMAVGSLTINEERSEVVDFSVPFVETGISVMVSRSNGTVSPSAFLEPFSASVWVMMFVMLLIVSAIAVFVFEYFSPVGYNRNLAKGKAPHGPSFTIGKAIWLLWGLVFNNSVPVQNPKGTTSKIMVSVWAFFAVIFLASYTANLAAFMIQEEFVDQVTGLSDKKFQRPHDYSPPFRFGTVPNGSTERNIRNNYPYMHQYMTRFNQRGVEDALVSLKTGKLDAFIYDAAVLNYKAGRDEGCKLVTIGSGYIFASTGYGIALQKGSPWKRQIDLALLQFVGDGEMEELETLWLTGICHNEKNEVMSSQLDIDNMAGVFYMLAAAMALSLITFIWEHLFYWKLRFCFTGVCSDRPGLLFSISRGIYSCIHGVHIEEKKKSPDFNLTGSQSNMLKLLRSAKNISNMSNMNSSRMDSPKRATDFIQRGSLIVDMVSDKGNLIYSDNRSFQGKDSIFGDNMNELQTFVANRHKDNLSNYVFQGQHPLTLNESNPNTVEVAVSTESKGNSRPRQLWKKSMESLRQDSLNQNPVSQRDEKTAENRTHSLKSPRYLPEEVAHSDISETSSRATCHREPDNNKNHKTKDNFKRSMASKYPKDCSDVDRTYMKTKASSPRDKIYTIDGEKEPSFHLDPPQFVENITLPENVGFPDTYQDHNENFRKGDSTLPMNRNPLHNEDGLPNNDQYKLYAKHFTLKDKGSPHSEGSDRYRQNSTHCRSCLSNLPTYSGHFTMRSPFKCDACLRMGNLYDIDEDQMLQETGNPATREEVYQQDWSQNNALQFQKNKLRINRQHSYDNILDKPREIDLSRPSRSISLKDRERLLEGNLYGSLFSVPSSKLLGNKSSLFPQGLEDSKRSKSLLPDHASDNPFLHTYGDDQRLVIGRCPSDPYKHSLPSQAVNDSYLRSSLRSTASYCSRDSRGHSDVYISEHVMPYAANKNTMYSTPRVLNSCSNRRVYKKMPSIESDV
Chain of NR1/NR3A receptors (Q9R1M7 24-1135, other chains not shown): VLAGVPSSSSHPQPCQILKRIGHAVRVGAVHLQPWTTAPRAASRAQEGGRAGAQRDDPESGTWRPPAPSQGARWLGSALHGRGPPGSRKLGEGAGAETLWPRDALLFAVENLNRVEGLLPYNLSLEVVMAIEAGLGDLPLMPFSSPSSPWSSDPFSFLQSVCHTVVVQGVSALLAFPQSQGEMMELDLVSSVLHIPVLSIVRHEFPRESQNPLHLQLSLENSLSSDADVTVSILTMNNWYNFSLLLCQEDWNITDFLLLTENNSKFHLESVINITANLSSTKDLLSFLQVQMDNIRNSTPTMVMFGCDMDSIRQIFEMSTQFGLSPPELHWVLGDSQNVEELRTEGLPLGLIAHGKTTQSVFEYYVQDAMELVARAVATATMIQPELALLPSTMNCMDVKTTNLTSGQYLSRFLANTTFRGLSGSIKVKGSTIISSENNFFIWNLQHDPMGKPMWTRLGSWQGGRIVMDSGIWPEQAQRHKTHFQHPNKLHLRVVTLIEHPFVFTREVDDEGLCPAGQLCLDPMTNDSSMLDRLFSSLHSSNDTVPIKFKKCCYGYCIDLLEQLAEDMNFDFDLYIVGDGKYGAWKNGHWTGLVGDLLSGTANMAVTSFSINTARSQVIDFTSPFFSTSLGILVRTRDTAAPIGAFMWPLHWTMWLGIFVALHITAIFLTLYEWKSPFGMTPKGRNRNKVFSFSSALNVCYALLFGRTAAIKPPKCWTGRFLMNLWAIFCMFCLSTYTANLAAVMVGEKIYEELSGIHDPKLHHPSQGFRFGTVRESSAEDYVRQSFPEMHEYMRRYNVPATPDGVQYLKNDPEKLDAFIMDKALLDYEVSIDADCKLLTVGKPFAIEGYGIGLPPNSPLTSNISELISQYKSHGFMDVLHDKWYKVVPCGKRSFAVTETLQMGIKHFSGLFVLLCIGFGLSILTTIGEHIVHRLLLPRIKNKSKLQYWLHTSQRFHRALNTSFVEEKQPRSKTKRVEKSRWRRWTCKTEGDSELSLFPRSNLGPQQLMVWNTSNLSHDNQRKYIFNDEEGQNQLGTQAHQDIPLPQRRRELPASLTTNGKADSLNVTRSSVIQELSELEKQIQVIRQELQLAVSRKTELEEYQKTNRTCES
Chain of NR1/NR3B receptors (Q8VHN2 25-1002, other chains not shown): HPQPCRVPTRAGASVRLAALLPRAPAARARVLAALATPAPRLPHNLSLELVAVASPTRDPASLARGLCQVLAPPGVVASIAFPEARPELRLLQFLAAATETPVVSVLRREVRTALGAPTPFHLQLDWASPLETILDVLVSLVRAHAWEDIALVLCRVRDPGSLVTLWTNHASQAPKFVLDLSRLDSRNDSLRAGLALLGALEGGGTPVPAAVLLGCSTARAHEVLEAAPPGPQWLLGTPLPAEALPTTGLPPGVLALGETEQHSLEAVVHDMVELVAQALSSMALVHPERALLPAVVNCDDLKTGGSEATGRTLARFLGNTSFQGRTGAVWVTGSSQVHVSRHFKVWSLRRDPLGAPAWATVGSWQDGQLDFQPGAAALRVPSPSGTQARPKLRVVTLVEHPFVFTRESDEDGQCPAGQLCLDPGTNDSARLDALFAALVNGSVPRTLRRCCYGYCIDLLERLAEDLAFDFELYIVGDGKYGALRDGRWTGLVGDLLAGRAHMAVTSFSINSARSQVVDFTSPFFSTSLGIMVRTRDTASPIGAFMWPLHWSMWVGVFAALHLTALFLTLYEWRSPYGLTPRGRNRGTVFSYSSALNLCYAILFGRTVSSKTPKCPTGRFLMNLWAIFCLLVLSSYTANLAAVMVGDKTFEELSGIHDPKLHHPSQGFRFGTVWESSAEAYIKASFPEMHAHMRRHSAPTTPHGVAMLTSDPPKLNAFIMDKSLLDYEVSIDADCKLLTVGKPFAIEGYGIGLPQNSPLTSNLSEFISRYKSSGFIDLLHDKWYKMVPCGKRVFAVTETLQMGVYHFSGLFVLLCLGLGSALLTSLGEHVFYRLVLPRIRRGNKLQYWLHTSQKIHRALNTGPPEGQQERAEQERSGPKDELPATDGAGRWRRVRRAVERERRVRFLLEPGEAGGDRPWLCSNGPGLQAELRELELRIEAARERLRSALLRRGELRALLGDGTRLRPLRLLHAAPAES

Q: `O=C(O)c1cc(=O)c2c(Cl)cc(Cl)cc2[nH]1` [5,7-dichlorokynurenic acid] was tested. Which “effect on glycine-evoked NR1/NR3A currents” value ([1]; listed as 5, 7-di-Cl-Kynurenate) did it give?
A: effectively blocked

Q: What about the “effect on glycine-evoked NR1/NR3A currents” value ([1]; listed as 5,7-dichlorokynurenate) of the same compound?
A: blocked

Q: And the “effect on glycine-evoked NR1/NR3B currents” value [2, 4]?
A: completely inhibits

Q: And the “effect on glycine-evoked NR1/NR3B currents” value ([2]; concentration of compound not given or dose-dependent, listed as 5, 7-di-Cl-Kynurenate)?
A: blocks

Q: And the “effect on glycine-evoked NR1/NR3B currents” value ([2]; concentration of compound not given or dose-dependent, listed as 5,7-dichlorokynurenate)?
A: completely abolished

Q: What does the source list for `NC1(C(=O)O)CC1` [ACPC]?
A: effect on glycine-evoked NR1/NR3B currents on co-application ([2]; 10 μM glycine): produces relative inhibition; effect on glycine-evoked NR1/NR3B currents [2, 4]: inhibited; NR1/NR3B current evoked by compound applied alone [2, 5]: does not evoke detectable NR1/NR3B currents; NR1/NR2A currents on co-application with NMDA (co-agonist activity) ([3]; co-applied with 100 μM NMDA): evokes NR1/NR2A currents

Q: `NC(CCCP(=O)(O)O)C(=O)O` (stereo not shown) [APV, 2-amino-5-phosphonovalerate] was tested. Which “effect on glycine-evoked NR1/NR3A currents” value [1] did it give?
A: blocked the current only slightly

Q: And the “effect on glycine-evoked NR1/NR3B currents” value [2]?
A: little or no effect; also recorded: has little effect

Q: And the “effect on glycine-induced NR1/NR3B current” value [2]?
A: actually potentiated glycine-evoked current somewhat; also recorded: did not block the glycine-induced current, and actually potentiated the current

Q: What about the “effect on NR1/NR2A currents” value ([3]; compound 10 μM) of the same compound?
A: blocks

Q: What does the source list for `N[C@H](CO)C(=O)O` [D-serine]?
A: effect on glycine-evoked NR1/NR3A currents [1]: effectively blocked; effect on glycine-evoked NR1/NR3B currents on co-application ([2]; 10 μM glycine): produces relative inhibition; effect on glycine-evoked NR1/NR3B currents [2, 4]: dose-dependently inhibits currents; also recorded: inhibited; also recorded: inhibits glycine-evoked responses in a dose-dependent fashion; NR1/NR3B current evoked by compound applied alone [2, 5]: evokes small NR1/NR3B currents alone

Q: With `N[C@@H](CS)C(=O)O` [L-cysteine] as the compound, how does the “effect on NR1/NR3B currents evoked by glycine” value ([2]; compound 50 μM, 5 μM glycine) read?
A: have little effect or only slightly potentiate the current

Q: What about the “effect on glycine-evoked NR1/NR3B currents” value [2, 4] of the same compound?
A: slightly potentiated

Q: Which results are given for `C[C@]12N[C@H](Cc3ccccc31)c1ccccc12` [MK801]?
A: effect on glycine-evoked NR1/NR3A currents [1]: not only failed to block glycine-evoked currents of NR1/NR3A receptors, but actually potentiated these currents; also recorded: potentiates; effect on glycine-evoked NR1/NR3B currents [2]: does not block and in fact appears to slightly potentiate; sensitivity of NR1/NR3B receptors to channel blocker compared to NR1/NR2A (NR2-containing) receptors [2]: drastically less sensitive; effect on NR1/NR2A currents ([3]; compound 10 μM): complete blockade

Q: Which “effect on NR1/NR2A currents” value ([3]; compound 12 μM) does the source give for `CC12CC3CC(C)(C1)CC(N)(C3)C2` [Memantine] here?
A: completely blocks

Q: How did the “effect on glycine-evoked NR1/NR3A currents” value [1] turn out when `[Mg+2]` [Mg^2+] was run?
A: no inhibitory effect

Q: And the “effect on glycine-evoked NR1/NR3A currents” value ([1]; higher glycine levels)?
A: potentiates peak currents without affecting the steady state current

Q: What about the “effect on glycine-evoked NR1/NR3A currents” value ([1]; low glycine levels) of the same compound?
A: not only failed to block glycine-evoked currents of NR1/NR3A receptors, but actually potentiated these currents; also recorded: actually potentiates

Q: What about the “sensitivity of NR1/NR3B receptors to channel blocker compared to NR1/NR2A (NR2-containing) receptors” value ([2]; comparison with NR2 subunit-containing receptors) of the same compound?
A: drastically less sensitive; also recorded: much less potently

Q: What about the “effect on glycine-induced NR1/NR3B current” value ([2]; compound 0.5 mM, 10 μM glycine, holding potential −60 mV) of the same compound?
A: had no effect

Q: What about the “effect on glycine-evoked NR1/NR3B currents” value [2, 4] of the same compound?
A: weakly inhibits

Q: And the “effect on NR1/NR2A currents” value ([3]; compound 0.1 mM)?
A: inhibition

Q: `CN[C@H](CC(=O)O)C(=O)O` [NMDA, N-methyl-D-aspartate] was tested. Which “NR1/NR3B current evoked by compound applied alone” value [2] did it give?
A: little or no effect

Q: And the “effect on glycine-evoked NR1/NR3B currents” value [2]?
A: little or no effect; also recorded: does not potentiate

Q: Which “effect on NR1/NR3B currents evoked by glycine” value [2] does the source give for `N[C@@H](CCC(=O)O)C(=O)O` [glutamate] here?
A: have little effect or only slightly potentiate the current
